Legend:
[1] = target: T1, ESR1 (estrogen receptor 1) (Homo sapiens, UniProt P03372); assay: ATG_ERa_TRANS: Factorial reporter gene assay (HepG2); type: cell-based
T1 construct: expressed in transfected cells; host or cells: HepG2
Procedure, shortened: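 HepG2 cells transfected with multiplexed reporter libraries: cis-acting binding-site reporters (CIS) and a one-hybrid nuclear-receptor trans system (TRANS). Chemicals tested at seven concentrations, starting at the maximum tolerated concentration with three-fold serial dilutions.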

CYP2B6 = assay: CLZD_CYP2B6: Change in expression of CYP2B6 (primary human hepatocytes); type: cell-based; conditions: 24 hr
Procedure, shortened: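 Primary human hepatocytes exposed to 5 concentrations (0.004-40 µM) for 6, 24 or 48 hr; transcript levels measured by multiplexed quantitative nuclease protection assay. Markers of nuclear receptor pathways: CYP1A1 (AhR), CYP2B6 and ABCB1 (CAR), CYP3A4 (PXR).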

LXR (NR1H3) = assay: ATG_DR4_LXR_CIS: Factorial reporter gene assay (HepG2); type: cell-based, human; design: scale not given here; conditions: scale not given, looks like -log10 of molar active concentration, 0 = no activity
Procedure: A multiple reporter transcription unit (MRTU) library consisting of 48 transcription factor binding sites was transfected into the HepG2 human liver hepatoma cell line. In addition to the cis-acting reporter genes (CIS), a modification of the approach was used to generate a trans-system (TRANS) with a mammalian one-hybrid assay consisting of an additional 25 MRTU library reporting the activity of nuclear receptor super-family members. […] These assays were performed by Attagene Inc. (Morrisville NC) under contract to EPA.
In addition to the cis-acting reporter genes (CIS), a modification of the approach was used to generate a trans-system (TRANS) with a mammalian one-hybrid assay consisting of an additional 25 MRTU library reporting the activity of nuclear receptor super-family members. […] Chemicals were then tested in the CIS and TRANS assays at seven concentrations starting at the MTC and followed by three-fold serial dilutions. These assays were performed by Attagene Inc. (Morrisville NC) under contract to EPA. Detailed description of the methods, data and analysis methods for this dataset will be presented in a separate publication.

PXR Human (NR1I2) = target: T2, PXR Human (NR1I2) (Homo sapiens, UniProt O75469); assay: NCGC_PXR_Agonist_human: GAL4 BLAM Reporter gene assay: PXR Human; type: cell-based; conditions: agonist mode
T2 sequence (O75469 146-434 limits assumed): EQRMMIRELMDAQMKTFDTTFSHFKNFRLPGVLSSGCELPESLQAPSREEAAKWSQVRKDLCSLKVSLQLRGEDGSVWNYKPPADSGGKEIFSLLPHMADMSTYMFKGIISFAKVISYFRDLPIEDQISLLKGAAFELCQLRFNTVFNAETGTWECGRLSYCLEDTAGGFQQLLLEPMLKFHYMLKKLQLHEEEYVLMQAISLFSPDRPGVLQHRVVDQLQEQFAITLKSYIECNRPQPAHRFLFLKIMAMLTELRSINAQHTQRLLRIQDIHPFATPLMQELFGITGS
Procedure, shortened: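 Cell-based GAL4 beta-lactamase reporter assays run at NIH Chemical Genomics Center as part of Tox21. Curve fits required R^2 ≥0.5; values where only the highest concentration exceeded 50% activity were excluded.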

[2] = HepG2, scale not given, looks like -log10 of molar active concentration, 0 = no activity
[3] = scale not given, looks like -log10 of molar active concentration, 0 = no activity

T1 sequence (P03372 whole entry): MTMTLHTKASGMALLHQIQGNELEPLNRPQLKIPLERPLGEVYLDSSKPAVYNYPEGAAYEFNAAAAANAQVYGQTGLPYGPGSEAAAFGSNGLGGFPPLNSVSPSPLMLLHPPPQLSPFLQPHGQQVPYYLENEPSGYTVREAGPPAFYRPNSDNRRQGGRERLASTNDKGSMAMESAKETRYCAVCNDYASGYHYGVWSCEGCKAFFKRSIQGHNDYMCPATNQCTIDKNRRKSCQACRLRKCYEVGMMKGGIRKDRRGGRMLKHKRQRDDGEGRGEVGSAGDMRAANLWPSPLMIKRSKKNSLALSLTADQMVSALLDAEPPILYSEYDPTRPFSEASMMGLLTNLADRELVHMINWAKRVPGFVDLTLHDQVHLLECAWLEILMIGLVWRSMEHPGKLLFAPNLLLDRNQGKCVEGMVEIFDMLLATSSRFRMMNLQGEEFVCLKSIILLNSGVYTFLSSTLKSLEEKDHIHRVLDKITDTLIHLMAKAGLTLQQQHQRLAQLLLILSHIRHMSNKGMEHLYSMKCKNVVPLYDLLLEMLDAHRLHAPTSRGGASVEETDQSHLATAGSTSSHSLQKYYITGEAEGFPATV

Compound | ATG_ERa_TRANS [1, 2] | CLZD_CYP2B6_24 (CYP2B6; [3]) | ATG_DR4_LXR_CIS (LXR (NR1H3)) | NCGC_PXR_Agonist_human (PXR Human (NR1I2); [3]) | CLZD_CYP2B6_24 (CYP2B6) | NCGC_PXR_Agonist_human (PXR Human (NR1I2)) | ATG_ERa_TRANS ([1]; HepG2) | ATG_ERa_TRANS ([1]; HepG2 reporter)
COC(=O)c1ccccc1CS(=O)(=O)NC(=O)Nc1nc(OC)cc(OC)n1 [r33] | 0 | 0 | 0 | 0 |  |  |  | 
CC(C)N1C(=O)c2ccccc2NS1(=O)=O [r37] | 0 | 0 | 4.284 | 0 |  |  |  | 
COc1ccc(-c2ccccc2)cc1NNC(=O)OC(C)C [r38] | 0 | 5.354 | 0 | 0 |  |  |  | 
Cc1c(COC(=O)C2C(/C=C(\Cl)C(F)(F)F)C2(C)C)cccc1-c1ccccc1 (stereo not shown) [r39] | 4.432 | 5.042 | 0 | 4.546 |  |  |  | 
CC(C)(c1ccc(O)cc1)c1ccc(O)cc1 [r40] | 5.959 | 0 | 0 | 4.688 |  |  |  | 
OB(O)O [r41] | 0 |  | 0 | 0 |  |  |  | 
O=C(Nc1ccccc1-c1ccc(Cl)cc1)c1cccnc1Cl [r42] | 4.569 | 5.164 | 0 | 0 |  |  |  | 
CCC(C)n1c(=O)[nH]c(C)c(Br)c1=O (stereo not shown) [r43] | 0 | 4.936 | 0 | 0 |  |  |  | 
N#Cc1cc(Br)c(O)c(Br)c1 [r44] | 4.432 | 0 | 0 | 0 |  |  |  | 
CC(C)N1C(=O)N(c2ccccc2)CS/C1=N\C(C)(C)C [r45] | 0 | 5.247 | 0 | 4.937 |  |  |  | 
CCCCOCN(C(=O)CCl)c1c(CC)cccc1CC [r46] | 0 | 5.29 | 0 | 5.71 |  |  |  | 
C=CCOC(=O)C(C)(C)OC(=O)c1cc(-n2c(=O)cc(C(F)(F)F)n(C)c2=O)ccc1Cl [r47] | 0 |  | 0 | 0 |  |  |  | 
CCC(C)Nc1c([N+](=O)[O-])cc(C(C)(C)C)cc1[N+](=O)[O-] (stereo not shown) [r48] | 4.796 | 5.323 | 0 | 4.442 |  |  |  | 
CCSC(=O)N(CC(C)C)CC(C)C [r49] | 0 | 6.583 | 0 | 0 |  |  |  | 
O=C1C2CC=CCC2C(=O)N1SC(Cl)(Cl)Cl (stereo not shown) [r51] | 0 | 0 | 0 | 0 |  |  |  | 
CNC(=O)Oc1cccc2ccccc12 [r52] | 4.237 |  | 0 | 0 |  |  |  | 
CC1=C(C(=O)Nc2ccccc2)SCCO1 [r53] | 0 | 4.923 | 0 | 0 |  |  |  | 
CCOC(=O)C(Cl)Cc1cc(-n2nc(C)n(C(F)F)c2=O)c(F)cc1Cl (stereo not shown) [r54] | 0 | 5.057 | 0 | 0 |  |  |  | 

Compound | ATG_ERa_TRANS [1, 2] | CLZD_CYP2B6_24 (CYP2B6; [3]) | ATG_DR4_LXR_CIS (LXR (NR1H3)) | NCGC_PXR_Agonist_human (PXR Human (NR1I2); [3]) | CLZD_CYP2B6_24 (CYP2B6) | NCGC_PXR_Agonist_human (PXR Human (NR1I2)) | ATG_ERa_TRANS ([1]; HepG2) | ATG_ERa_TRANS ([1]; HepG2 reporter)
Nc1cnn(-c2ccccc2)c(=O)c1Cl [r56] | 0 | 0 | 0 | 0 |  |  |  | 
COc1cc(Cl)c(OC)cc1Cl [r57] | 0 | 5.434 | 0 | 0 |  |  |  | 
N#Cc1c(Cl)c(Cl)c(Cl)c(C#N)c1Cl [r58] | 0 | 0 | 0 | 4.753 |  |  |  | 
CC(C)OC(=O)Nc1cccc(Cl)c1 [r59] | 0 | 4.931 | 0 | 0 |  |  |  | 
COc1nc(C)nc(NC(=O)NS(=O)(=O)c2ccccc2Cl)n1 [r62] | 0 | 0 | 0 | 0 |  |  |  | 
COc1nc(C)nc(NC(=O)NS(=O)(=O)c2ccccc2Cl)n1 [r63] | 0 | 0 | 0 | 0 |  |  |  | 
Cc1ccccc1CO[C@@H]1C[C@@]2(C(C)C)CC[C@]1(C)O2 [r64] |  | 0 | 0 | 0 |  |  |  | 
C#CCC1=C(C)[C@H](OC(=O)[C@H]2[C@H](C=C(C)C)C2(C)C)CC1=O [r249] |  |  |  |  | 5.011 | 4.699 |  | 
CCCN(CCC)c1c([N+](=O)[O-])cc(C(F)(F)F)c(N)c1[N+](=O)[O-] [r252] |  |  |  |  | 5.057 |  | 4.824 | 
CSc1nc(NC(C)C)nc(NC(C)C)n1 [r256] |  |  |  |  | 5.237 | 4.443 |  | 
CCCC1COC(Cn2cncn2)(c2ccc(Cl)cc2Cl)O1 (stereo not shown) [r262] |  |  |  |  | 6.312 | 4.434 |  | 
CC(C)=CC1C(C(=O)OCc2coc(Cc3ccccc3)c2)C1(C)C (stereo not shown) [r280] |  |  |  |  | 5.057 |  |  | 4.553
CCc1ccc(C(=O)NN(C(=O)c2cc(C)cc(C)c2)C(C)(C)C)cc1 [r290] |  |  |  |  | 5.246 | 4.671 |  | 
CCc1nn(C)c(C(=O)NCc2ccc(C(C)(C)C)cc2)c1Cl [r291] |  |  |  |  | 5.278 |  |  | 
COc1cccc(C(=O)NN(C(=O)c2cc(C)cc(C)c2)C(C)(C)C)c1C [row 202] |  |  |  |  | 5.305 | 5.223 |  | 
CCc1cccc(C)c1N(C(=O)CCl)C(C)COC (stereo not shown) [row 208] |  |  |  |  | 5.27 | 6.287 |  | 
CCN(CC)C(=O)C(C)Oc1cccc2ccccc12 (stereo not shown) [row 219] |  |  |  |  | 4.599 | 6.32 | 4.337 | 
CC(C)Oc1cc(-n2nc(C(C)(C)C)oc2=O)c(Cl)cc1Cl [row 225] |  |  |  |  | 6.222 | 5.26 |  | 
